Consider five molecules from patent US20230220443A1, “CHARACTERIZATION OF S-ADENOSYL-L-METHIONINE-CONSUMING ENZYMES WITH 1-STEP EZ-MTASE: A UNIVERSAL COUPLED-ASSAY” (ALBERT EINSTEIN COLLEGE OF MEDICINE, priority 2017, published 2023).

The target of one data set is T1, GsSDMT (Galdieria sulphuraria, UniProt M2XPA0).
T1 sequence (M2XPA0 2-297): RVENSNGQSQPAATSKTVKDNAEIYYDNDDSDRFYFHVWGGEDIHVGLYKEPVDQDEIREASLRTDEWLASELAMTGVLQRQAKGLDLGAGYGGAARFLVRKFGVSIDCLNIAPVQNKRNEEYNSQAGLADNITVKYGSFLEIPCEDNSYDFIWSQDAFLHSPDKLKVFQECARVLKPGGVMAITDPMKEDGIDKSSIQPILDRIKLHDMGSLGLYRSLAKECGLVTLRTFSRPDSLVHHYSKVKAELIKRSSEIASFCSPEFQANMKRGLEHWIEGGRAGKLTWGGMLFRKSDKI
The data set is described as follows: 1-Step EZ-MTase UV-based coupled assay, GsSDMT kinetics. Particulars: pH=7.80, co-substrate saturating. In kind it is biochemical. As to the method:
Kinetic behavior for sarcosine against GsSDMT (SAM sat.)—Experiments were conducted following matching CePRMT5 protocol above. Briefly, the 100-μL mixtures from a same row contained 100 mM phosphate buffer pH=7.80, 1 mM βME, 5% glycerol, 100 μM MgCl2, 4 μM coupling deaminase TM0936, 976 nM GsSDMT and various sarcosine concentrations (0.5-12.5 mM; in the first well, sarcosine was omitted to account for background signal—natural decomposition of SAM). Reactions started upon addition of SAM (750 μM saturating final concentration), 60-μL volumes were transferred onto UV plate and absorbance was recorded. Initial rates were first corrected for background signal, and then plotted against sarcosine concentrations. Fit to the Michaelis-Menten equation provided corresponding kinetic parameters.
Kinetic behavior for SAM against GsSDMT (sarcosine sat.)—Experiments were conducted following matching CePRMT5 protocol above. Briefly, the measurements consisted of two experimental subsets: MTase reactions (both SAM and sarcosine added) and MTase blanks (SAM was added without sarcosine to account for natural SAM decomposition). The 100-μL reaction mixtures from a same row contained 100 mM phosphate buffer pH=7.80, 1 mM βME, 5% glycerol, 100 μM MgCl2, 4 μM coupling deaminase TM0936, 195 nM GsSDMT and various SAM concentrations (49.9-750.2 μM). Reactions started upon addition of either sarcosine (10 mM saturating final concentration; MTase reactions) or water (MTase blanks), 60-μL volumes were transferred onto UV plate and absorbance was recorded at 263 nm. Initial rates were first corrected for background signal, and then plotted against SAM concentrations. Fit to the Michaelis-Menten equation provided corresponding kinetic parameters.
Kinetic behavior for 8-aza-SAM against MTases (acceptor sat.)—Briefly, kinetic parameters were determined at 20° C. in a UV-Star 96-well flat bottom plate (Greiner Bio-One, #655801) by continuous monitoring of absorbance at 282 nm using a SpectraMax M5 instrument (Molecular Devices). As for SAM experiments, the measurements consisted of two experimental subsets: MTase reactions (both 8-aza-SAM and acceptor added) and MTase blanks (8-aza-SAM was added without acceptor to account for natural 8-aza-SAM decomposition). The 250-μL (60-μL) reaction mixtures from a same row contained 50 mM phosphate buffer pH=7.60 (7.80), 1 mM βME, 10% glycerol (5% glycerol, 100 μM MgCl2), 4 μM coupling deaminase TM0936, either 1.5 μM CePRMT5 or 402 nM TbPRMT7 (or 610 nM GsSDMT) and various 8-aza-SAM concentrations. […] Initial rates were first corrected for background signal, then plotted against 8-aza-SAM concentrations and fitted to the Michaelis-Menten equation to yield corresponding kinetic parameters.

For data set [1] the following is noted: cited from earlier work.
The target in a further data set is T2, deaminase TM0936 (Thermotoga maritima, UniProt Q9X034).
T2 construct: polyhistidine; made in house; host or cells: bacteria
T2 sequence (Q9X034 1-406): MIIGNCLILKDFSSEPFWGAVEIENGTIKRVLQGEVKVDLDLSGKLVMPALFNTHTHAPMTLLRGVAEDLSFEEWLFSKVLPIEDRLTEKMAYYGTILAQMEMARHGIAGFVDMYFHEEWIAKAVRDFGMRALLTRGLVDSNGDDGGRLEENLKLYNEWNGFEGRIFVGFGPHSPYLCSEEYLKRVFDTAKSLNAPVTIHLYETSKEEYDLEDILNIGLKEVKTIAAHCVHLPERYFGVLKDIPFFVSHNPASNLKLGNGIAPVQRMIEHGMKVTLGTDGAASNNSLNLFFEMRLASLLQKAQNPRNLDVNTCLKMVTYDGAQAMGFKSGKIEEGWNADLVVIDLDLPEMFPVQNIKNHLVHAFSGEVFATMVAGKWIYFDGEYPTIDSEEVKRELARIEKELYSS
The data set is described as follows: Deamination by coupling enzyme TM0936. In kind it is biochemical. Here is the method: FIG. 9A-9D. Sinefungin is a positive control compatible with the 1-Step EZ-MTase assay. (A) MTAN-based assays catabolize the methyltransferase inhibitor sinefungin (SIN). […] (C) pH-dependence of the reaction between sinefungin and TM0936. […] (D) Inhibition of the sarcosine/dimethylglycine methyltransferase by sinefungin. […] The initial methyltransfer rates were recorded at 263 nm. Further analysis provided the inhibition constant Ki (1.8±0.4 μM).

Data set [2] is described as follows: pKa from pH-dependence of differential extinction coefficient (UV). In kind it is physicochemical. Here is the method: Nucleoside concentrations (stock solutions) were determined using known extinction coefficients for: adenosine, 259(ε/M^−1 cm^−1 15,400) and 8-aza-adenosine, 277(e/M-1 cm^−1 17,830). The deaminase reactions using these various substrates were performed in quartz cuvettes (1-cm light path; 3-mL reaction volume) and absorbance measurements were carried out with a NanoDrop 2000c (scan mode: 220-320 nm with multi scans superimposed; 37° C. and continuous stirring). Briefly, the 3-mL reactions contained 50 mM buffer (acetate: pH 4.00-5.00; MES: pH 5.00-6.50; phosphate: pH 5.80-8.00; TRIS: pH 7.50-8.50; CHES: pH 8.90-9.90), 1 mM βME and 10% glycerol. Five different concentrations of either adenosine or 8-aza-adenosine substrates were used (10, 20, 30, 40 and 50 μM). Mixtures were blanked before acquisition and reactions started upon addition of deaminase (TM0936, 2 μL of 240.5 μM enzyme stock). Over the course of the deaminase reaction (e.g. adenosine→inosine), optimum wavelengths at which the highest absorbance shift is observed were selected (i.e. adenosine reaction, λ=[…]; 8-aza-adenosine reaction, λ1=282 nm and λ2=292 nm). Scans were recorded until the absorbance at these monitored wavelengths reached a stable value (82). For each pH condition, the end-point absorbance shifts were plotted against initial nucleoside concentrations and fitted to a linear regression: each slope is a differential extinction coefficient (Δε) for deamination of the specific nucleoside substrate. Furthermore, the pH-dependence of differential extinction coefficient (Ae) for this deaminase reaction was obtained by plotting the pairs (Δε; pH) and fitting these to the following supplementary Eq. 2:
where ΔεHIGH pH and ΔεLOW pH are the extinction coefficient measured at optimum wavelengths (i.e. λ for adenosine and λ1 or λ2 for 8-aza-adenosine) for the deaminase reaction at high and low pH, respectively, and […] is the logarithm of acid dissociation constant for either inosine or 8-aza-inosine.

Data set [3] in a line: pKa from pH-dependence of fluorescence. Particulars: 50 mM buffer series. Type of data set: physicochemical. As to the method: Calibration of fluorescence signal for the 8-aza-A to 8-aza-I reaction—This procedure is very similar to the one described under “Differential Extinction Coefficients (Δε) for Deaminase Reaction”. Briefly, standard solutions (240 μL) of 8-aza-adenosine (0-25 μM; 12 data points) containing 50 mM buffer (pH 5.00-9.50), 10% glycerol and 1 mM βME, were loaded into a […] black flat bottom plate. 10-μL water per well were added to one data-set (12 concentrations of 8-aza-adensoine); 10-μL TM0936 solution (24.05 μM) were added to the remaining samples (12 concentrations of 8-azaadenosine at various pH values). The loss of fluorescence (Em=360 nm) from 8-azaadenosine standard solutions (Ex=282/292 nm) where recorded with a Spectramax M5 plate reader until no change in signal could be observed.
At a same pH, the comparison between end-point deaminase reactions and reference well (TM0936 added but no 8-aza-adenosine) provided the pH-dependence of 8-azainosyl fluorescence. […] Furthermore, the comparison between end-point deaminase reactions and reference well (various 8-aza-adenosine concentrations but no TM0936 added) provided the calibration curve of fluorescence signal for the 8-aza-adenosine to 8-aza-ionisine reaction. […]

“And” between values parts separate entries of the source, which are not always exact repeats. Equal values may be shown once. Read-outs that look alike come from different tables or passages of the source.

Usually kcat stands for the maximal rate divided by the concentration of active sites. By pKa is commonly meant the pH at which an ionisable group is half protonated. Regarding `CNCC(=O)O` [Sarcosine, sarcosine], at GsSDMT, the kcat came out at 1.5 ± 0.083 s⁻¹. Moreover, the pKa in data set [1] (methyl-amine group from sarcosine) was 10.0; in data set [1] (sarcosine carboxylate) it was “≈ 2.2”.

`Nc1ncnc2c1ncn2[C@@H]1O[C@H](CO)[C@@H](O)[C@H]1O` [adenosine]: on deaminase TM0936 (10 μM substrate, 1 nM TM0936 (FIG. 7A)), the “deamination by TM0936, slower than that of its 8-aza analog” value worked out at 10 fold.

With `OC[C@H]1O[C@@H](n2cnc3c(O)ncnc32)[C@H](O)[C@@H]1O` [inosine], the pKa was 8.9 and 8.85 in data set [1] (inosine, literature); 8.72 ± 0.09 in data set [2] (263 nm).

`OC[C@H]1O[C@@H](n2nnc3c(O)ncnc32)[C@H](O)[C@@H]1O` [8-aza-inosine]: the pKa in data set [3] (pH 5.00-9.50, Ex/Em 282/360 nm) was found to be 7.5 ± 0.03; in data set [3] (pH 5.00-9.50, Ex/Em 292/360) it was 7.54 ± 0.04; in data set [2] (282 nm), 7.29 ± 0.03; in data set [2] (292 nm), 7.3 ± 0.03.

What is called Km is the concentration of substrate that gives half-maximal velocity. With `Nc1ncnc2c1ncn2[C@@H]1O[C@H](CSCC[C@H](N)C(=O)O)[C@@H](O)[C@H]1O` [SAH, S-adenosyl-L-homocysteine], at deaminase TM0936 (room temperature), the Km turned out to be 0.6 ± 0.2 µM and the kcat worked out at 7.1 ± 0.4 s⁻¹.
